Data: patent US20060004197A1, “Sulfonamide-based compounds as protein tyrosine kinase inhibitors” (priority 2004, published 2006)

Key:
Format in all cases: biochemical
Recombinant Csk = Recombinant Csk (Homo sapiens, UniProt P41240); experiment: Csk tyrosine kinase activity, poly E4Y / 32P-ATP phosphorylation assay
Recombinant human Src = target: T1, Recombinant human Src (Homo sapiens, UniProt P12931); experiment: Src tyrosine kinase activity, poly E4Y / 32P-ATP phosphorylation assay
T1 construct: made in house; host or cells: baculovirus-insect cell system

FGF receptor (FGFr) = experiment: FGFr tyrosine kinase activity, poly E4Y / 32P-ATP phosphorylation assay
[1] = Table 3, Formula II compounds, NI = no inhibition at 100 μg/mL
[2] = Table 4, Formula III compounds, NI = no inhibition at 100 μg/mL
[3] = poly E4Y / 32P-ATP, Formula IV compounds

T1 sequence (P12931 whole entry): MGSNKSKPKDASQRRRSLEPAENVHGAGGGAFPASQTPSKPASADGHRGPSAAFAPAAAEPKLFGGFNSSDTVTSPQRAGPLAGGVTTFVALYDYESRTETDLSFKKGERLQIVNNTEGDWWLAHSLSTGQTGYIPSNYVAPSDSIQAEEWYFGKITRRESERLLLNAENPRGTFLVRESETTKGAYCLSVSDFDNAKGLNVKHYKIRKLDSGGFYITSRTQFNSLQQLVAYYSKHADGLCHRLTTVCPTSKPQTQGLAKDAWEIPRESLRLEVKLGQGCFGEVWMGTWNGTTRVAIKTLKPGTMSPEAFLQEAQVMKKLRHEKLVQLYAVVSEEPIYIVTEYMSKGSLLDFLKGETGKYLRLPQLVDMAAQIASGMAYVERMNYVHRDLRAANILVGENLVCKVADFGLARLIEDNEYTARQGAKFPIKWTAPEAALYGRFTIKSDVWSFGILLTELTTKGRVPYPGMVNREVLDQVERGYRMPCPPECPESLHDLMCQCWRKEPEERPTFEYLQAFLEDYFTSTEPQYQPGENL

IC50 (Recombinant Csk; [1]) [µM]	IC50 (Recombinant human Src; [1]) [µM]	IC50 (FGF receptor (FGFr); [1]) [µM]	SMILES	other results
104	12	38	Cc1ccc(S(=O)(=O)Nc2ccc(Oc3ccc4ccccc4c3)cc2NS(=O)(=O)c2ccc(C)cc2)cc1 [Compound 12u, N-[4-(naphthalene-2-yloxy)-2-(4-toluenesulfonylamino)-phenyl]-4-toluenesulfonamide]	–
> 224	69	145	COc1ccc(NS(=O)(=O)c2ccc(C)cc2)c(NS(=O)(=O)c2ccc(C)cc2)c1 [Compound 12v, N-[4-methoxy-2-(4-toluenesulfonylamino)-phenyl]-4-toluenesulfonamide]	–
185	5.5	15.3	Cc1ccc(S(=O)(=O)Nc2ccc(Oc3ccc(Cl)cc3)cc2NS(=O)(=O)c2ccc(C)cc2)cc1 [Compound 12w, N-[4-(4-chloro-phenoxy)-2-(4-toluenesulfonylamino)-phenyl]-4-toluenesulfonamide]	–
72	9.5	31	Cc1ccc(S(=O)(=O)Nc2ccc(Oc3cccc(C(=O)O)c3)cc2NS(=O)(=O)c2ccc(C)cc2)cc1 [Compound 12x, N-[4-(3-carboxy-phenoxy)-2-(4-toluenesulfonylamino)-phenyl]-4-toluenesulfonamide]	–
104	11	26	Cc1ccc(S(=O)(=O)Nc2ccc(Oc3cccc(CC(=O)O)c3)cc2NS(=O)(=O)c2ccc(C)cc2)cc1 [Compound 12y, {3-[3,4-bis(4-toluenesulfonylamino)-phenoxy]-phenyl}-acetic acid]	–
> 180	14	88	Cc1ccc(S(=O)(=O)Nc2ccc(OCc3ccc(Cl)cc3)cc2NS(=O)(=O)c2ccc(C)cc2)cc1 [Compound 15b, N-[4-(4-chloro-benzyloxy)-2-(4-toluenesulfonylamino)-phenyl]-4-toluenesulfonamide]	–
> 180	27	54	Cc1ccc(S(=O)(=O)Nc2ccc(OCc3cccc(Cl)c3)cc2NS(=O)(=O)c2ccc(C)cc2)cc1 [Compound 15c, N-[4-(3-chloro-benzyloxy)-2-(4-toluenesulfonylamino)-phenyl]-4-toluenesulfonamide]	–
59	14	66	Cc1ccc(S(=O)(=O)Nc2ccc(OCc3ccccc3Cl)cc2NS(=O)(=O)c2ccc(C)cc2)cc1 [Compound 15d, N-[4-(2-chloro-benzyloxy)-2-(4-toluenesulfonylamino)-phenyl]-4-toluenesulfonamide]	–
> 181	15	132	COc1ccc(COc2ccc(NS(=O)(=O)c3ccc(C)cc3)c(NS(=O)(=O)c3ccc(C)cc3)c2)cc1 [Compound 15e, N-[4-(4-methoxy-benzyloxy)-2-(4-toluenesulfonylamino)-phenyl]-4-toluenesulfonamide]	–
> 189	42	91	Cc1ccc(S(=O)(=O)Nc2ccc(OCC3CCCCC3)cc2NS(=O)(=O)c2ccc(C)cc2)cc1 [Compound 15f, N-[4-cyclohexylmethoxy-2-(4-toluenesulfonylamino)-phenyl]-4-toluenesulfonamide]	–
> 174	11	–	Cc1ccc(S(=O)(=O)Nc2ccc(SCc3ccccc3Cl)cc2NS(=O)(=O)c2ccc(C)cc2)cc1 [Compound 15g, N-[4-(2-chloro-benzylsulfanyl)-2-(4-toluenesulfonylamino)-phenyl]-4-toluenesulfonamide]	IC50 (μM) FGFr (FGF receptor (FGFr); [1]): NI (NI = no inhibition at 100 μg/mL)
214	46	64	Cc1ccc(S(=O)(=O)Nc2ccc(-n3cccn3)cc2NS(=O)(=O)c2ccc(C)cc2)cc1 [Compound 17a, N-[4-(pyrazol-1-yl)-2-(4-toluenesulfonylamino)-phenyl]-4-toluenesulfonamide]	–
> 218	39	98	Cc1ccc(S(=O)(=O)Nc2ccc(N(C)C)cc2NS(=O)(=O)c2ccc(C)cc2)cc1 [Compound 17c, N-[4-dimethylamino-2-(4-toluenesulfonylamino)-phenyl]-4-toluenesulfonamide]	–
> 207	51	3.1	Cc1ccc(S(=O)(=O)Nc2ccc(-n3ccnc3)cc2NS(=O)(=O)c2ccc(C)cc2)cc1 [Compound 17d, N-[4-(imidazol-1-yl)-2-(4-toluenesulfonylamino)-phenyl]-4-toluenesulfonamide]	–
> 153	19	21	Cc1ccc(S(=O)(=O)Nc2ccc(N3CCN(S(=O)(=O)c4ccc(C)cc4)CC3)cc2NS(=O)(=O)c2ccc(C)cc2)cc1 [Compound 17e, N-{2-(4-toluenesulfonylamino)-4-[4-(toluene-4-sulfonyl)-piperazin-1-yl]-phenyl}-4-toluenesulfonamide]	–
> 199	38	50	Cc1ccc(S(=O)(=O)Nc2ccc(N3CCOCC3)cc2NS(=O)(=O)c2ccc(C)cc2)cc1 [Compound 17f, N-[4-(morpholin-4-yl)-2-(4-toluenesulfonylamino)-phenyl]-4-toluenesulfonamide]	–

IC50 (Recombinant Csk; [1]) [µM]	IC50 (Recombinant human Src; [1]) [µM]	IC50 (FGF receptor (FGFr); [1]) [µM]	SMILES	other results
> 190	8.6	23	Cc1ccc(S(=O)(=O)Nc2ccc(-c3ccc(Cl)cc3)cc2NS(=O)(=O)c2ccc(C)cc2)cc1 [Compound 21, N-[4-(4-chloro-phenyl)-2-(4-toluenesulfonylamino)-phenyl]-4-toluenesulfonamide]	–
> 224	> 224	–	COc1cccc(NS(=O)(=O)c2ccc(C)cc2)c1NS(=O)(=O)c1ccc(C)cc1 [Compound 22a, N-[3-methoxy-2-(4-toluenesulfonylamino)-phenyl]-4-toluenesulfonamide]	IC50 (μM) FGFr (FGF receptor (FGFr); [1]): NI (NI = no inhibition at 100 μg/mL)
–	–	–	Cc1ccc(S(=O)(=O)Nc2cc(N)c(Sc3ccc(Cl)cc3)cc2NS(=O)(=O)c2ccc(C)cc2)cc1 [Compound 23, N-[5-amino-4-(4-chloro-phenylsulfanyl)-2-(4-toluenesulfonylamino)-phenyl]-4-toluenesulfonamide]	IC50 (Recombinant Csk; [2]): 280 µM; IC50 (Recombinant human Src; [2]): 58 µM; IC50 (FGF receptor (FGFr); [2]): 56 µM
–	–	–	CC(=O)Nc1cc(NS(=O)(=O)c2ccc(C)cc2)c(NS(=O)(=O)c2ccc(C)cc2)cc1Sc1ccc(Cl)cc1 [Compound 24, N-[2-(4-chloro-phenylsulfanyl)-4,5-bis-(4-toluenesulfonylamino)-phenyl]-acetamide]	IC50 (Recombinant Csk; [2]): > 162 µM; IC50 (Recombinant human Src; [2]): > 162 µM; IC50 (FGF receptor (FGFr); [2]): 515 µM
–	–	–	COC(=O)c1cc(NS(=O)(=O)c2ccc(C)cc2)c(NS(=O)(=O)c2ccc(C)cc2)cc1Oc1ccc(OC)cc1 [Compound 33, Methyl 2-(4-methoxy-phenoxy)-4,5-bis-(4-toluenesulfonylamino)-benzoate]	IC50 (Recombinant Csk; [2]): > 168 µM; IC50 (Recombinant human Src; [2]): 67 µM; IC50 (μM) FGFr (FGF receptor (FGFr); [2]): NI (NI = no inhibition at 100 μg/mL)
–	–	–	Cc1ccc(S(=O)(=O)Nc2cc(Br)c(Br)cc2NS(=O)(=O)c2ccc(C)cc2)cc1 [Compound 38a, N-[4,5-dibromo-2-(4-toluenesulfonylamino)-phenyl]-4-toluenesulfonamide]	IC50 (Recombinant Csk; [2]): > 174 µM; IC50 (Recombinant human Src; [2]): 31 µM; IC50 (FGF receptor (FGFr); [2]): 110 µM
–	–	–	COc1ccc(OCc2ccc(OS(=O)(=O)c3ccc(C)cc3)c(OS(=O)(=O)c3ccc(C)cc3)c2)cc1 [Compound 48, [4-(4-methoxy-phenoxymethyl)-2-(4-toluenesulfonyloxy)-phenyl]-4-toluenesulfonate]	IC50 (Recombinant Csk; [3]): > 180 µM; IC50 (Recombinant human Src; [3]): 102 µM; IC50 (μM) FGFr (FGF receptor (FGFr); [3]): NI (NI = no inhibition at 100 μg/mL)
–	–	–	Cc1ccc(C(=O)Nc2cc(Sc3ccc(Cl)cc3)c([N+](=O)[O-])cc2NC(=O)c2ccc(C)cc2)cc1 [Compound 51, N-[4-(4-chloro-phenylsulfanyl)-5-nitro-2-(4-toluoylamino)-phenyl]-4-toluamide]	IC50 (Recombinant Csk; [3]): 51 µM; IC50 (Recombinant human Src; [3]): 153 µM; IC50 (FGF receptor (FGFr); [3]): 40 µM
–	–	–	Cc1ccc(C(=O)Nc2ccc(Sc3ccc(Cl)cc3)cc2NC(=O)c2ccc(C)cc2)cc1 [Compound 52, N-[4-(4-chloro-phenylsulfanyl)-2-(4-toluoylamino)-phenyl]-4-toluamide]	IC50 (Recombinant Csk; [3]): > 205 µM; IC50 (Recombinant human Src; [3]): 51 µM; IC50 (μM) FGFr (FGF receptor (FGFr); [3]): NI (NI = no inhibition at 100 μg/mL)
–	–	–	Cc1ccc(S(=O)(=O)N(C)c2cc(Sc3ccc(Cl)cc3)c([N+](=O)[O-])cc2N(C)S(=O)(=O)c2ccc(C)cc2)cc1 [Compound 53, N-[4-(4-chloro-phenylsulfanyl)-5-nitro-2-(4-toluenesulfonyl-methyl-amino)-phenyl]-N-methyl-4-toluenesulfonamide]	IC50 (Recombinant Csk; [3]): 261 µM; IC50 (Recombinant human Src; [3]): 388 µM; IC50 (FGF receptor (FGFr); [3]): 254 µM
–	–	–	Cc1ccc(S(=O)(=O)Nc2cc([N+](=O)[O-])c(Sc3ccc(Cl)cc3)cc2N)cc1 [Compound 55, N-[2-amino-4-(4-chloro-phenylsulfanyl)-5-nitro-phenyl]-4-toluenesulfonamide]	IC50 (Recombinant Csk; [3]): > 222 µM; IC50 (Recombinant human Src; [3]): 33 µM; IC50 (FGF receptor (FGFr); [3]): 2.2 µM
–	–	–	Cc1ccc(C(=O)Nc2cc([N+](=O)[O-])c(Sc3ccc(Cl)cc3)cc2N)cc1 [Compound 56, N-[2-amino-4-(4-chloro-phenylsulfanyl)-5-nitro-phenyl]-4-toluamide]	IC50 (Recombinant Csk; [3]): > 242 µM; IC50 (Recombinant human Src; [3]): > 242 µM; IC50 (FGF receptor (FGFr); [3]): 410 µM
–	–	–	COc1ccc(Oc2ccc(NS(=O)(=O)c3ccc(C)cc3)c(O)c2)cc1 [Compound 59, N-[2-hydroxy-4-(4-methoxy-phenoxy)-phenyl]-4-toluenesulfonamide]	IC50 (Recombinant Csk; [3]): > 259 µM; IC50 (Recombinant human Src; [3]): 65 µM; IC50 (FGF receptor (FGFr); [3]): 65 µM
–	–	–	COc1ccc(Oc2ccc(NS(=O)(=O)c3ccc(C)cc3)c(OC)c2)cc1 [Compound 60, N-[2-methoxy-4-(4-methoxy-phenoxy)-phenyl]-4-toluenesulfonamide]	IC50 (Recombinant Csk; [3]): > 250 µM; IC50 (Recombinant human Src; [3]): 129 µM; IC50 (μM) FGFr (FGF receptor (FGFr); [3]): NI (NI = no inhibition at 100 μg/mL)
–	–	–	COc1ccc(Oc2ccc(N(C)S(=O)(=O)c3ccc(C)cc3)c(OC)c2)cc1 [Compound 61, N-[2-methoxy-4-(4-methoxy-phenoxy)-phenyl]-N-methyl-4-toluenesulfonamide]	IC50 (Recombinant Csk; [3]): > 242 µM; IC50 (Recombinant human Src; [3]): 177 µM; IC50 (μM) FGFr (FGF receptor (FGFr); [3]): NI (NI = no inhibition at 100 μg/mL)
